{"source": "patent US12313635B2", "about": "“Biomarker for thoracic aortic aneurysm” (THE REGENTS OF THE UNIVERSITY OF CALIFORNIA, priority 2018, dated 2025)", "key": {"[1]": {"tested_on": "H4B", "assay": "Aortic and plasma tetrahydrobiopterin (H4B) levels by HPLC", "type": "in vivo", "conditions": "Fbn1^+/+ and Fbn1^C1039G/+ mice, oral FA vs chow diet", "description": "(§1) FA treatment started at 4 weeks of age, and lasted through the entire study period of 8 weeks till harvest.\nAortic H4B and plasma H4B were measured using HPLC as previously described^19-22, 26, 27, 32, 33, 35-37. For the aorta, freshly isolated aortas were lysed in H4B lysis buffer (0.1 M phosphoric acid, 1 mM EDTA, 10 mM dl-dithiothreitol) and then centrifuged at 12,000 g for 3 min at 4° C. in the dark. For plasma, equal volumes of plasma and H4B lysis buffer were mixed and incubated on ice for 20 min in the dark and then centrifuged at 12,000 g for 3 min at 4° C. in the dark. The supernatant for both the aorta and plasma was subjected to oxidation in acidic (0.2 M trichloroacetic acid with 2.5% 12 and 10% KI) and alkalytic solutions (0.1 M NaOH with 0.9% 12 and 1.5% KI). After centrifugation, 10 μl of the supernatant was injected into a HPLC system equipped with a fluorescent detector (SHIMADZU AMERICA INC, Carlsbad, CA, USA). Excitation and emission wavelengths of 350 nm and 450 nm were used to detect H4B and its oxidized species. H4B concentration was calculated as previously described ^38, 39."}, "[2]": {"tested_on": "eNOS", "assay": "Aortic superoxide production and eNOS uncoupling activity (L-NAME-sensitive superoxide) by electron spin resonance", "type": "in vivo, mice", "description": "as §1\nAortic superoxide was measured by ESR as previously described^19-22, 26-33. Briefly, freshly isolated aortas were homogenized on icein lysis buffer containing 1:100 protease inhibitor cocktail, and centrifuged at 12,000 g for 15 min. Protein content of the supernatant was determined using a protein assay kit (Bio-Rad, #500-0113, #500-0114, #500-0115). […]\n(§2) Four weeks old heterozygous Fbn1^C1039G/+ male animals were treated with TGFβ neutralizing antibody (anti-TGFβ, clone 1D11, Bio X Cell) or isotype (IgG, clone MOPC21, Bio X Cell) as previously shown^40. […] Aortic superoxide production and eNOS uncoupling activity were determined after 4 weeks injection as described above.\nFirstly, ESR was used to measure the aortic superoxide production with or without L-NAME, an inhibitor for NOS. If eNOS is functional and coupled, its inhibition by L-NAME will increase the measured superoxide due to lack of scavenging effects of NO on superoxide. However, if eNOS is dysfunctional and uncoupled, it produces superoxide and the inhibition with L-NAME will reduce measured superoxide."}, "[3]": {"tested_on": "DHFR", "assay": "Western blotting of DHFR and eNOS expression in aortic endothelial cells", "type": "in vivo, mice", "conditions": "aortic ECs of Fbn1^+/+ and Fbn1^C1039G/+ animals after FA treatment", "description": "as §1\nWestern blotting was performed following standard protocols, using 12.5% SDS/PAGE gel and nitrocellulose membranes. Primary antibodies and their dilutions used were: DHFR (1:500, Novus Biologicals, H00001719-MO1), β-actin (1:3000, Sigma-Aldrich, A2066), eNOS (1:2000, BD Transduction Laboratories, 610297), TGFβ (1:500, Abcam, ab92486), NOX4 (1:300, Novus Biologicals, NB110-58849SS), and GTPCH 1 (1:500, Abbiotec, 250680).\nEndothelial cells (ECs) were isolated from freshly prepared aortas, Western blot was used to detect DHFR expression in aortic ECs and HPLC was performed to assess DHFR activity in the isolated ECs and the denuded aortas of the Fbn1^+/+ and Fbn1^C1039G/+ animals. […] As shown in FIGS. 6D & 6E, DHFR activity was measured via HPLC from both the isolated ECs (FIG. 6D) and the denuded aortas (FIG. 6E)."}, "[4]": {"tested_on": "NO bioavailability in aortic tissues", "assay": "Aortic NO bioavailability by electron spin resonance", "type": "in vivo", "conditions": "aortas of Fbn1^C1039G/+ mice, age 8 and 12 weeks, oral FA", "quoted_text": "FA treatment started at 4 weeks of age, and lasted through the entire study period of 8 weeks till harvest. Aortic N O production was also measured using ESR as previous described^19-22, 26-29, 32-34. Briefly, freshly isolated aortas were cut into 2 mm rings, and then incubated in freshly prepared NO specific spin trap Fe^2+(DETC)2 (0.5 mmol/L) in nitrogen bubbled, modified Krebs/HEPES buffer (as described above) at 37° C. for 60 min, in the presence of calcium ionophore A23187 (10 μmol/L). The aortic rings were then snap frozen in liquid nitrogen and loaded into a finger Dewarfor measurement with ESR. The instrument settings were as the following: Center field, 3440; Sweep width, 100 G: microwave frequency, 9.796 GHz; microwave power 13.26 mW; modulation amplitude, 9.82 G; 512 points of resolution; and receiver gain 356."}, "[5]": {"tested_on": "DHFR", "assay": "DHFR activity by HPLC in isolated ECs and denuded aortas", "type": "in vivo", "conditions": "Fbn1^C1039G/+ and Fbn1^+/+ mice, oral FA treatment", "description": "as §1\nDHFR activity was measured from isolated EC or denuded aorticring lysates as previously described^19, 22, 26. Briefly, lysates were incubated in a DHFR assay buffer (0.1 mol/L potassium phosphate dibasic, 1 mmol/L DTT, 0.5 mmol/L KCl, 1 mmol/L EDTA, and 20 mmol/L sodium ascorbate at pH 7.4) with NADPH (200 μmol/L) and the substrate dihydrofolate (50 μmol/L) at 37° C. for 20 min in the dark. The product of the reaction, tetrahydrofolate (THF), was measured using a HPLC system (SHIMADZU AMERICA INC, Carlsbad, CA, USA) with a C-18 column (Alltech, Deerfield, MA, USA) using water based mobile phase consisting of 7% acetonitrile and 5 mmol/L of potassium phosphate dibasic at pH 2.3. The signal was detected using a fluorescent detector at 295 nm excitation and 365 nm emission. The THF content was calculated against a standard curve prepared using THF solutions in assay buffer. Data are presented as nmol production of THF per min per mg protein."}, "[6]": {"tested_on": "Fbn1^C1039G/+ Marfan Syndrome (MFS) mice", "assay": "Ultrasound imaging (echocardiography) of aortic root and abdominal aorta diameters", "type": "in vivo", "conditions": "FA food (15 mg/kg/day from 4 weeks of age) vs chow diet", "from_the_text": "All experimental procedures were approved by the Institutional Animal Care and Usage committee at the University of California, Los Angeles (UCLA). Original heterozygous Fbn1^C1039G/+ male animals were purchased from Jackson Labs (Bar Harbor, ME, Strain B6.129-Fbn1^tm1Hcd/J, stock #012885). Heterozygous mice develop proximal aortic aneurysms, mitral valve thickenings, pulmonary alveolar septation defects, mild thoracic kyphosis, and skeletal myopathy, but 90% reportedly live to one year of age. This strain was backcrossed to C57BL/6 for more than nine generations by the donating laboratory^14. All pups were genotyped using PCR (FIG. 2) as per instructions by Jackson Labs.\nas §1\nAnimals were anesthetized with isoflurane (˜[…]), and secured onto a temperature controlled table to maintain temperature at 37° C. Hair from the abdomen and the chest were removed with a hair removal cream (Nair). […] All images were recorded and saved for later offline aortic dimension analysis.\nas §2"}, "[7]": {"tested_on": "Ang II infused hph-1 mice and Ang II-infused apoE null mice", "conditions": "cited from earlier work"}}, "data": [{"smiles": "Nc1nc2ncc(CNc3ccc(C(=O)N[C@@H](CCC(=O)O)C(=O)O)cc3)nc2c(=O)[nH]1", "note": "[FA, folic acid]", "values": [{"measurement": "H4B levels in plasma", "setting": "[1]", "result": "substantially restored"}, {"measurement": "H4B levels in the aortas", "setting": "[1]", "result": "substantially restored"}, {"measurement": "L-NAME-sensitive superoxide production (eNOS uncoupling activity)", "setting": "[2]; aortas of Fbn1^C1039G/+ mice at 8 and 12 week old, oral FA", "result": "completely attenuated"}, {"measurement": "superoxide production", "setting": "[2]; aortas of Fbn1^C1039G/+ mice, FA diet", "result": "reduce superoxide production"}, {"measurement": "expression of DHFR", "setting": "[3]", "result": "increased"}, {"measurement": "NO bioavailability", "setting": "[4]", "result": "markedly improved"}, {"measurement": "DHFR activity in the denuded aortas", "setting": "[5]", "result": "substantially increased"}, {"measurement": "DHFR activity in the isolated ECs", "setting": "[5]", "result": "substantially increased"}, {"measurement": "size (diameter) of abdominal aortas", "setting": "[6]", "result": "substantially smaller"}, {"measurement": "size (diameter) of aortic roots", "setting": "[6]", "result": "substantially smaller"}, {"measurement": "AAA formation", "setting": "[7]; Ang II infused hph-1 mice and Ang II-infused apoE null mice, oral administration", "result": "completely or largely attenuated"}, {"measurement": "plasma and tissue H4B levels", "setting": "[7]; angiotensin II infused hph-1 and apoE null mice (AAA models)", "result": "restored"}]}]}
